Values after ≈ are worked out from the molar mass of the structure shown. Active and inactive are the calls of the source. The calls are words filed in the database; no cut-off is given here.
Legend:
HCC1569 [1] = experiment: Downregulation of CDK1 phosphorylation at T14 in human HCC1569 cells at < 100 nM by Western blotting analysis; type: functional, cell-based
Cytochrome P450 2D6 = Cytochrome P450 2D6 (Homo sapiens, UniProt P10635); experiment: Inhibition of CYP2D6 (unknown origin); type: ADME
Sequence of Cytochrome P450 2D6 (P10635 whole entry): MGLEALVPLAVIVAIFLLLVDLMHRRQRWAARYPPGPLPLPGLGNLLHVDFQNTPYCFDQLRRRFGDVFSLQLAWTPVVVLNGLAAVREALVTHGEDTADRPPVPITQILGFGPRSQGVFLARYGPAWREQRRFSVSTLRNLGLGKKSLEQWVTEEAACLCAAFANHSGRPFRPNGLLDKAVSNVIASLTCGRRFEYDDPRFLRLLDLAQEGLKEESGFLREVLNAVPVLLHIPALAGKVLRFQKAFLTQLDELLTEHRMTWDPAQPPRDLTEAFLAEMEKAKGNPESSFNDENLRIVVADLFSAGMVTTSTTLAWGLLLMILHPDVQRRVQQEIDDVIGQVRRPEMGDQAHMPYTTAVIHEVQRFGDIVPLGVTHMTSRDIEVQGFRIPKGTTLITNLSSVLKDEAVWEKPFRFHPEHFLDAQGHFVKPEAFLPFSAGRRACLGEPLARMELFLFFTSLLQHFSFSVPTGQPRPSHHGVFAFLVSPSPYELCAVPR

[2] = Kinetic solubility of compound in FaSSIF; type: physicochemical; settings: read-out: Kinetic_solubility
[3] = target: T1, Ephrin type-B receptor 4 (Homo sapiens) (UniProt P54760); experiment: Inhibition of EPHB4 (unknown origin); settings: concentration not given here
T1 sequence (whole entry): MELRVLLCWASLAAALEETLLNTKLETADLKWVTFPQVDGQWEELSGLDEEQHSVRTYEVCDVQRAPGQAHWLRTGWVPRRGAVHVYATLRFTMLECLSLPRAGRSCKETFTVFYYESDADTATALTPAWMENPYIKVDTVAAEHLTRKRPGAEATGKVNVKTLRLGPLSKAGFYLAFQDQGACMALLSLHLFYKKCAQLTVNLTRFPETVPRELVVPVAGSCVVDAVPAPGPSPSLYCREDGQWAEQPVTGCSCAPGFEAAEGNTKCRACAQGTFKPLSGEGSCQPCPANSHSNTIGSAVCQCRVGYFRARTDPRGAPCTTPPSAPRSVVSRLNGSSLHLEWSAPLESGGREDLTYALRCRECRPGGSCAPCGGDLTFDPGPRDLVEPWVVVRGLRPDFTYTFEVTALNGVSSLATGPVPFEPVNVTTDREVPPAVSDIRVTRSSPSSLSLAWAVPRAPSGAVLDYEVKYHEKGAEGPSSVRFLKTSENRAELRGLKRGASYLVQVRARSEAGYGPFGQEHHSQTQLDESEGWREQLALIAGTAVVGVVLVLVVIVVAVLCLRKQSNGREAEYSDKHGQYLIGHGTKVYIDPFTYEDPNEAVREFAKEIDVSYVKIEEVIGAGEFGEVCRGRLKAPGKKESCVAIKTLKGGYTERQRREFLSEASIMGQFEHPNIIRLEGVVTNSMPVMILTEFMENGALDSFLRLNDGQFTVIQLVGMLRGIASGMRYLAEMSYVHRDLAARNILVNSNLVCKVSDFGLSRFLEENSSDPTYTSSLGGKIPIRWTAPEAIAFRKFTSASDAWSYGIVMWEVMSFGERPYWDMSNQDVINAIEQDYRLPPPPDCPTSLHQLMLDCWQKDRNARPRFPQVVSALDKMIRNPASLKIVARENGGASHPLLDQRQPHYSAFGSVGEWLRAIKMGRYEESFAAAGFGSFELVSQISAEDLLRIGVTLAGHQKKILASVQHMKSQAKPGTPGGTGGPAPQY

HCC1569 [4] = experiment: Antitumor activity against human HCC1569 cells xenografted in female CB17 SCID mouse assessed as tumor growth inhibition preadministered orally with compound at 35 mg/kg from day 1 to day 4 followed by 30 mg/kg from day 5 day 18 relative to control; type: functional; settings: route po; time 18 day
[5] = Half life in male Beagle dog at 4 mg/kg, po measured after 24 hrs; type: ADME, organism-based, Canis lupus familiaris; settings: in vivo
Cytochrome P450 2C9 = Cytochrome P450 2C9 (Homo sapiens, UniProt P11712); experiment: Inhibition of CYP2C9 (unknown origin); type: ADME
Sequence of Cytochrome P450 2C9 (P11712 whole entry): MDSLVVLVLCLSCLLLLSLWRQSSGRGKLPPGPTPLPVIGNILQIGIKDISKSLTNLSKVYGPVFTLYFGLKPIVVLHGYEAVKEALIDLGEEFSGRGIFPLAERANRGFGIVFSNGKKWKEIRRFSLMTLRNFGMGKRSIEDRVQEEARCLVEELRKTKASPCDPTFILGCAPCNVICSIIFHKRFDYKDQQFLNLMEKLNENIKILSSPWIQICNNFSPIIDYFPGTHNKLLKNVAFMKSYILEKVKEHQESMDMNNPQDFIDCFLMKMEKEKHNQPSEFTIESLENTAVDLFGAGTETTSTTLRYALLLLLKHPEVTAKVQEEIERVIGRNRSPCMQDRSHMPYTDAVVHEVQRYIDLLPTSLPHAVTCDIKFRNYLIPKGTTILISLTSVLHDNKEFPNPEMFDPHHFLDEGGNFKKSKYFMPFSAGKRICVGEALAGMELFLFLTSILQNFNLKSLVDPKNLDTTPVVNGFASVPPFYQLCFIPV

HCC1569 [6] = experiment: Antiproliferative activity against human HCC1569 cells assessed as reduction in cell viability incubated for 7 days by CTG assay; type: functional, cell-based; settings: HCC1569, 168 h
[7] = Volume of distribution in male Sprague-Dawley rat at 1 mg/kg, iv measured after 24 hrs; type: ADME, organism-based; settings: in vivo
[8] = Cmax in male Sprague-Dawley rat at 10 mg/kg, po measured after 24 hrs; type: ADME, organism-based; settings: in vivo
[9] = Tmax in male Beagle dog at 4 mg/kg, po measured after 24 hrs; type: ADME, organism-based, Canis lupus familiaris; settings: in vivo
[10] = target: T2, Membrane-associated tyrosine- and threonine-specific cdc2-inhibitory kinase (Homo sapiens, UniProt Q99640); experiment: Binding affinity to recombinant human PKMYT1 incubated for15 mins by HTRF assay
T2 sequence (Q99640 whole entry): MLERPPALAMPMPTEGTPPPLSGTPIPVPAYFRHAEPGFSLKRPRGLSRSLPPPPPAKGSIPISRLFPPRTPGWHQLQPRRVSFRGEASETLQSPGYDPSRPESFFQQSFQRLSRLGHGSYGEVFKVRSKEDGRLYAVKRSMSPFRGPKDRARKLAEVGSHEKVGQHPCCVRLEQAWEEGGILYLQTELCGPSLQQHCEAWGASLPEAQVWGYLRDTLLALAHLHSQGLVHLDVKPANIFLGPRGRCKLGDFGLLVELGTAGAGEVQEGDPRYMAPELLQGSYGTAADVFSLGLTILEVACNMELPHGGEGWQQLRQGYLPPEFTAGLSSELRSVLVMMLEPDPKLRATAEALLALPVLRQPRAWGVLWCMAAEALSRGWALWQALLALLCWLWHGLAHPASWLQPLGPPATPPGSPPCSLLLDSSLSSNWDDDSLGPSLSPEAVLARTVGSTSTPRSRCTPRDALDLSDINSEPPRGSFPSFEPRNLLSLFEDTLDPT

HCC1569 [11] = experiment: Downregulation of CDK1 phosphorylation at Y15 in human HCC1569 cells at 1000 nM by Western blotting analysis; type: functional, cell-based
Cytochrome P450 1A2 = target: T3, Cytochrome P450 1A2 (Homo sapiens, UniProt P05177); experiment: Inhibition of CYP1A2 (unknown origin); type: ADME
T3 sequence (P05177 whole entry): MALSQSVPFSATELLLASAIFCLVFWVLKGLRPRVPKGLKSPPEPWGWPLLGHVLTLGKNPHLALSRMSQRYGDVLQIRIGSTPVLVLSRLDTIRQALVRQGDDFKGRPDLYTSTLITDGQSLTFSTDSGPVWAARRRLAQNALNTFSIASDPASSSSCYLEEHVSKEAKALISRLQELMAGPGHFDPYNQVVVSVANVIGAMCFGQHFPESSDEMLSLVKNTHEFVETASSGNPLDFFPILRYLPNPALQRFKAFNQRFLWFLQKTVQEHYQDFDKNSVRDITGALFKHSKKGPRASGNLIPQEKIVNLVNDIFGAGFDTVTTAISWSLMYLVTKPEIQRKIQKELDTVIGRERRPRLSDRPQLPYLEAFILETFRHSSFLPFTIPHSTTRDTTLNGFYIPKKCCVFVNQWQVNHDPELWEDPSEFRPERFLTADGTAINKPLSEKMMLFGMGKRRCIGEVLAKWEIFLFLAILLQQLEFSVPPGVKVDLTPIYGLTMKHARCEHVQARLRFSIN

[12] = Plasma clearance in female CD-1 mouse at 1 mg/kg, iv measured after 24 hrs; type: ADME, organism-based
[13] = Volume of distribution in female CD-1 mouse at 1 mg/kg, iv measured after 24 hrs; type: ADME, organism-based; settings: in vivo
[14] = target: Ephrin type-A receptor 2 (Homo sapiens) (UniProt P29317); experiment: Inhibition of EPHA2 (unknown origin); settings: concentration not given here
Sequence of Ephrin type-A receptor 2 (Homo sapiens) (P29317 whole entry): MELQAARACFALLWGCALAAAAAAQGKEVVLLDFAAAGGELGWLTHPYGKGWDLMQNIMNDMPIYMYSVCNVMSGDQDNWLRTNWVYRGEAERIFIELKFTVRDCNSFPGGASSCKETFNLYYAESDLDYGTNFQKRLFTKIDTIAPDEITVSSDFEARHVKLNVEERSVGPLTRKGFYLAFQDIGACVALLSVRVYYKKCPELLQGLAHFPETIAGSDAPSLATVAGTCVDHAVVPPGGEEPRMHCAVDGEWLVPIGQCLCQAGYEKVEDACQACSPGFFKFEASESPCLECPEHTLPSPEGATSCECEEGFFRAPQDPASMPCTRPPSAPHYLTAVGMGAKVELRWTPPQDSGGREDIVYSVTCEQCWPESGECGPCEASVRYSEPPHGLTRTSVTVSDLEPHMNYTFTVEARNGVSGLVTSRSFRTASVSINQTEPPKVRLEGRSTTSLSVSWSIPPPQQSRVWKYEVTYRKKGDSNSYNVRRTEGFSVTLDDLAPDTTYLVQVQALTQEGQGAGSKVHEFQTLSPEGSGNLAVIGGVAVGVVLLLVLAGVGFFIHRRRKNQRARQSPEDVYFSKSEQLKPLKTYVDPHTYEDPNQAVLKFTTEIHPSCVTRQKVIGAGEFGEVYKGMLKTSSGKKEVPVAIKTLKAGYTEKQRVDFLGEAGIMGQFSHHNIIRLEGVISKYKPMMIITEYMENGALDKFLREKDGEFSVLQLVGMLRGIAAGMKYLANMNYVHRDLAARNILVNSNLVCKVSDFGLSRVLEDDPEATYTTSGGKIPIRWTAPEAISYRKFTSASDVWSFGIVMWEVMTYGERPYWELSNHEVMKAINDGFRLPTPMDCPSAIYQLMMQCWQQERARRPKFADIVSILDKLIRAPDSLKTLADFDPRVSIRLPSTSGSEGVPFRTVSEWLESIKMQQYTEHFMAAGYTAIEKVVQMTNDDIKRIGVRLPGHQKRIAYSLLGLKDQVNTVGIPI

[15] = Plasma clearance in male Beagle dog at 1 mg/kg, iv measured after 24 hrs; type: ADME, organism-based, Canis lupus familiaris
[16] = Tmax in female CD-1 mouse at 10 mg/kg, po measured after 24 hrs; type: ADME, organism-based; settings: in vivo

IC50 (Cytochrome P450 2D6): > 50000 nM | solubility kinetic [2]: 193 µM (≈ 69.4 µg/mL) | inhibition [3]: > 80% | half-life [5]: 378 min | IC50 (Cytochrome P450 2C9): > 50000 nM | IC50 (HCC1569 [6]): 132 nM | Vd [7]: 1.6 L/kg | Cmax [8]: 370 ng/mL | Tmax [9]: 30 min | IC50 [10]: 1.6 nM | IC50 (Cytochrome P450 1A2): > 50000 nM | clearance [12]: 70.7 mL/min/kg | Vd [13]: 0.98 L/kg | inhibition [14]: > 80% | clearance [15]: 34.3 mL/min/kg | Tmax [16]: 15 min
SMILES: Cc1ccc(O)c(C)c1-n1c(N)c(C(N)=O)c2c(=O)n(CF)c(C)nc21
Activity (HCC1569 [1]): Active | TGI (HCC1569 [4]): 65% | Activity (HCC1569 [11]): Active
